In US20070265165A1, “NOVEL HERBICIDES” (Syngenta Crop Protection, Inc., priority 1998, published 2007):

Assays:
Type in all cases: in vivo
[1] = test system: Setaria; assay: Post-emergent herbicidal action; conditions: 2000 g AS/ha sprayed in the 4- to 6-leaf stage; evaluated about 18 days later; rating scale 1-9 (1=total damage, 9=no action)
Text: (§1) In a greenhouse, monocot and dicot test plants are sown in standard soil in plastic pots and sprayed in the 4- to 6-leaf stage with an aqueous suspension of the test compounds of formula I prepared from a 25% wettable powder [Example F3, b) of WO 97/34485] or with an emulsion of the test compound of formula I prepared from a 25% emulsifiable concentrate [Example F1 c) of WO 97/34485] at a concentration of 2 kg active substance/ha (500 l of water/ha). The test plants are then further cultivated in the greenhouse under optimum conditions. The test is evaluated about 18 days later on a rating scale of 1-9 (1=total damage, 9=no action). Ratings of 1 to 4 (especially of 1 to 3) denote good to very good herbicidal action.

[2] = test system: Cyperus; assay: Post-emergent herbicidal action; conditions: 2000 g AS/ha sprayed in the 4- to 6-leaf stage; evaluated about 18 days later; rating scale 1-9 (1=total damage, 9=no action)
Text: as §1

[3] = test system: Stellaria; assay: Post-emergent herbicidal action; conditions: 2000 g AS/ha sprayed in the 4- to 6-leaf stage; evaluated about 18 days later; rating scale 1-9 (1=total damage, 9=no action)
Text: as §1

[4] = test system: Solanig; assay: Post-emergent herbicidal action; conditions: 2000 g AS/ha sprayed in the 4- to 6-leaf stage; evaluated about 18 days later; rating scale 1-9 (1=total damage, 9=no action)
Text: as §1

[5] = test system: Sinapsis; assay: Post-emergent herbicidal action; conditions: 2000 g AS/ha sprayed in the 4- to 6-leaf stage; evaluated about 18 days later; rating scale 1-9 (1=total damage, 9=no action)
Text: as §1

[6] = test system: Setaria; assay: Pre-emergent herbicidal action; conditions: 2000 g AS/ha sprayed immediately after sowing; evaluated 3 weeks later; rating scale 1-9 (1=total damage, 9=no action)
Text: (§2) Monocot and dicot test plants are sown in standard soil in plastic pots. Immediately after sowing, the plants are sprayed at a concentration of 2 kg active substance/ha with an aqueous suspension of the test compound [prepared from a 25% wettable powder (Example F3, b) in accordance with WO 97/34485] or an emulsion of the test compound [prepared from a 25% emulsifiable concentrate (Example Fl c)] (500 l of water/ha). The test plants are then cultivated in the greenhouse under optimum conditions. The test is evaluated 3 weeks later on a rating scale of 1-9 (1=total damage, 9=no action). Ratings of 1 to 4 (especially of 1 to 3) denote good to very good herbicidal action.

[7] = test system: Cyperus; assay: Pre-emergent herbicidal action; conditions: 2000 g AS/ha sprayed immediately after sowing; evaluated 3 weeks later; rating scale 1-9 (1=total damage, 9=no action)
Text: as §2

[8] = test system: Stellaria; assay: Pre-emergent herbicidal action; conditions: 2000 g AS/ha sprayed immediately after sowing; evaluated 3 weeks later; rating scale 1-9 (1=total damage, 9=no action)
Text: as §2

[9] = test system: Solanig; assay: Pre-emergent herbicidal action; conditions: 2000 g AS/ha sprayed immediately after sowing; evaluated 3 weeks later; rating scale 1-9 (1=total damage, 9=no action)
Text: as §2

[10] = test system: Sinapsis; assay: Pre-emergent herbicidal action; conditions: 2000 g AS/ha sprayed immediately after sowing; evaluated 3 weeks later; rating scale 1-9 (1=total damage, 9=no action)
Text: as §2

Row | Compound | Post-emergent action, test plant Setaria, rating [1] | Post-emergent action, test plant Cyperus, rating [2] | Post-emergent action, test plant Stellaria, rating [3] | Post-emergent action, test plant Solanig, rating [4] | Post-emergent action, test plant Sinapsis, rating [5] | Pre-emergent action, test plant Setaria, rating [6] | Pre-emergent action, test plant Cyperus, rating [7] | Pre-emergent action, test plant Stellaria, rating [8] | Pre-emergent action, test plant Solanig, rating [9] | Pre-emergent action, test plant Sinapsis, rating [10]
1 | COCc1c(S(C)(=O)=O)ccc(C(=O)C2=C(O)C3CCC(C3)C2=O)c1C (centres unmarked) [1,001, 4-hydroxy-3-(4-methylsulphonyl-3-methoxymethyl-2-methyl-benzoyl)-bicyclo[3.2.1]oct-3-en-2-one] | 2 | 3 | 2 | 2 | 2 | 3 | 3 | 2 | 2 | 3
2 | COCc1c(S(C)(=O)=O)ccc(C(=O)C2=C(O)C(C)(C)ON(C)C2=O)c1C [2,001, 5-hydroxy-4-(4-methylsulphonyl-3-methoxymethyl-2-methyl-benzoyl)-2,6,6-trimethyl-6.H.-[1,2]oxazin-3-one] | 3 | 3 | 4 | 2 | 2 | 3 | 3 | 2 | 2 | 2
